From PMC12344293, “A new class of binding-protein dependent solute transporter exemplified by the TAXI-GltS system from Bordetella pertussis” (Communications Biology, 2025) come the findings set out here.

For orientation: Kd means the constant that tells how readily two partners part at equilibrium. As usually defined, the stoichiometry N is the number of molecules, sites or subunits per partner or assembly.

In data set [1] the target is T1, BP0403 (Bordetella pertussis, UniProt Q7VSK8).
T1 construct: BP0403SBP (residues 208–503), isolated C-terminal SBP domain; full-length BP0403FL (without signal peptide) also shifted in DSF
As to the kind of experiment: intrinsic tyrosine fluorescence titration (n = […]); DSF shift on full-length protein and SBP domain. The format is binding.

Data set [2] concerns the target T2, BP0403 (Bordetella pertussis, UniProt Q7VSK8, Q263A).
T2 sequence (Q7VSK8 208-503 Q263A): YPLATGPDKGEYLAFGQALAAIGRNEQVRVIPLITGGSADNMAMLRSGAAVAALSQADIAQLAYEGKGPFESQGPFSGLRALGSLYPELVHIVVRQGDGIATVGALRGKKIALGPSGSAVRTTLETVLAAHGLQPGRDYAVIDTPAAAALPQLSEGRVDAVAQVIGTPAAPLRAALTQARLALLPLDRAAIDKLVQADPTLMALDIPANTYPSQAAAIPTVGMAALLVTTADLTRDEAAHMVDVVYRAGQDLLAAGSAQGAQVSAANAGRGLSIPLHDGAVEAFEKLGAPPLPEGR
As to the kind of experiment: intrinsic tyrosine fluorescence titration. It is filed as binding.

The target in data set [3] is T3, BP0403 (Bordetella pertussis, UniProt Q7VSK8, Y219A).
T3 sequence (Q7VSK8 208-503 Y219A): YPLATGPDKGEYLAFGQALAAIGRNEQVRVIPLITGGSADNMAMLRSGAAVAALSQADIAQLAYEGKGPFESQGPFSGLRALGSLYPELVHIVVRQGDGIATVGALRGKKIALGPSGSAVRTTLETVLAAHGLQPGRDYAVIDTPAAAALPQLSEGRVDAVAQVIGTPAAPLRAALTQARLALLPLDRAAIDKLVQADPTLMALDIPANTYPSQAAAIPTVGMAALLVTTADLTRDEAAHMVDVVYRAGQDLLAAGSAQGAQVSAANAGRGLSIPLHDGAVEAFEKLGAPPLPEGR
As to the kind of experiment: intrinsic tyrosine fluorescence titration. It is filed as binding.

Data set [4] concerns the molecule itself. Kind of data set: SEC; Superdex 200 Increase 10/300 GL, 0.5 ml/min, SEC buffer (50 mM Tris-HCl pH 8, 100 mM NaCl, 5% glycerol); IMAC eluate incubated 20 min at room temperature with 5 mM EDTA and 100 mM glycerol before loading; elution volume compared with a calibration curve of molecular weight standards. On the technique in general: In gel filtration, larger molecules generally elute earlier.

On to `N[C@@H](CCC(=O)O)C(=O)O` [L-glutamate], for which the values for the Kd in data set [1], in data set [2] and in data set [3] were 0.18 ± 0.032 µM, 45 ± 3 µM and 31 ± 6 µM, respectively.

B1: full-length BP0403 (BP0403FL) (natural protein, Bordetella pertussis, UniProt Q7VSK8 20-503, looked up)
chain: SRAPDTEILQRDVGQTLAATYGPDLFDIVALRRMGSATDSTAPPGQTRRVVYYDVVLGLKKDLTLGAWDQPGAAALVSLLGAGPRSISGVKSSGNAAGDQIVAHASAIYQRDAEQWVHVAPASFTATEAPSLDTGAPPPVTRQLLQTLEQITRSVPYSASSTAQHVVQQELERSVARINGRLARLQKGYPLATGPDKGEYLAFGQALAAIGRNEQVRVIPLITGGSADNMAMLRSGAAVAALSQADIAQLAYEGKGPFESQGPFSGLRALGSLYPELVHIVVRQGDGIATVGALRGKKIALGPSGSAVRTTLETVLAAHGLQPGRDYAVIDTPAAAALPQLSEGRVDAVAQVIGTPAAPLRAALTQARLALLPLDRAAIDKLVQADPTLMALDIPANTYPSQAAAIPTVGMAALLVTTADLTRDEAAHMVDVVYRAGQDLLAAGSAQGAQVSAANAGRGLSIPLHDGAVEAFEKLGAPPLPEGR
notes: Codon optimised synthetic gene; also called BP0403 wildtype; source: E. coli BL21 (DE3), pET151, purified (Ni-NTA, SEC)
As to B1, the “stoichiometry N” value in data set [4] turned out to be 2.
